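Dose response: 5 concentrations. Exposure: 48 h. Format: 96-well plates. Endpoint: linear interpolation; highest concentration if not reached. TGI marks complete inhibition of growth.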
Key:
Assay in all cases: DTP human tumour cell line panel, 48 h
[1] = system: COLO 205 colon
[2] = system: SK-MEL-2 melanoma
[3] = system: HL-60(TB) leukemia
[4] = system: MOLT-4 leukemia
[5] = system: TK-10 renal
[6] = system: A549 NSCLC
[7] = system: SW-620 colon
[8] = system: IGROV1 ovarian
[9] = system: OVCAR-5 ovarian
[10] = system: OVCAR-3 ovarian
[11] = system: SK-MEL-28 melanoma
[12] = system: SN12C renal
[13] = system: PC-3 prostate
[14] = system: ACHN renal
[15] = system: HT29 colon
[16] = system: CCRF-CEM leukemia
[17] = system: MDA-N
[18] = system: MCF7 breast
[19] = system: SF-539 CNS
[20] = system: NCI-H23 lung
[21] = system: HCT-116 colon
[22] = system: NCI-H226 lung
[23] = system: OVCAR-8 ovarian
[24] = system: MDA-MB-435
[25] = system: HS 578T breast
[26] = system: OVCAR-4 ovarian
[27] = system: MDA-MB-231 breast
[28] = system: LOX IMVI melanoma
[29] = system: SF-268 CNS
[30] = system: A498 renal
[31] = system: M14 melanoma
[32] = system: EKVX NSCLC
[33] = system: BT-549 breast
[34] = system: SF-295 CNS
[35] = system: SK-MEL-5 melanoma
[36] = system: HCT-15 colon
[37] = system: UACC-257 melanoma
[38] = system: NCI/ADR-RES ovarian
[39] = system: SK-OV-3 ovarian
[40] = system: DU-145 prostate
[41] = system: HOP-92 NSCLC
[42] = system: U251 CNS
[43] = system: NCI-H460 lung
[44] = system: MALME-3M melanoma
[45] = system: UO-31 renal
[46] = system: HCC-2998 colon
[47] = system: K-562 leukemia
[48] = system: NCI-H522 lung
[49] = system: KM12 colon
[50] = system: UACC-62 melanoma
[51] = system: CAKI-1 renal
[52] = system: SNB-75 CNS
[53] = system: 786-0 renal
[54] = system: T-47D breast
[55] = system: SNB-19 CNS
[56] = system: RPMI-8226 leukemia
[57] = system: SR leukemia
[58] = system: HOP-62 NSCLC
[59] = system: RXF 393 renal

SMILES: C=C1C(=O)OC2(C)CCC1CC1OC1(C)CCC=C(C)CCC2O (stereo unspecified)
- TGI [1]: > 100 µM
- TGI [2]: > 100 µM
- TGI [3]: > 100 µM
- TGI [4]: > 100 µM
- TGI [5]: > 100 µM
- TGI [6]: > 100 µM
- TGI [7]: > 100 µM
- TGI [8]: > 100 µM
- TGI [9]: > 100 µM
- TGI [10]: > 100 µM
- TGI [11]: > 100 µM
- TGI [12]: > 100 µM
- TGI [13]: > 100 µM
- TGI [14]: > 100 µM
- TGI [15]: > 100 µM
- TGI [16]: > 100 µM
- TGI [17]: 97.4 µM
- TGI [18]: > 100 µM
- TGI [19]: > 100 µM
- TGI [20]: > 100 µM
- TGI [21]: > 100 µM
- TGI [22]: > 100 µM
- TGI [23]: > 100 µM
- TGI [24]: > 100 µM
- TGI [25]: > 100 µM
- TGI [26]: > 100 µM
- TGI [27]: > 100 µM
- TGI [28]: > 100 µM
- TGI [29]: > 100 µM
- TGI [30]: > 100 µM
- TGI [31]: > 100 µM
- TGI [32]: > 100 µM
- TGI [33]: > 100 µM
- TGI [34]: > 100 µM
- TGI [35]: > 100 µM
- TGI [36]: > 100 µM
- TGI [37]: > 100 µM
- TGI [38]: > 100 µM
- TGI [39]: > 100 µM
- TGI [40]: > 100 µM
- TGI [41]: > 100 µM
- TGI [42]: > 100 µM
- TGI [43]: > 100 µM
- TGI [44]: > 100 µM
- TGI [45]: > 100 µM
- TGI [46]: > 100 µM
- TGI [47]: > 100 µM
- TGI [48]: > 100 µM
- TGI [49]: > 100 µM
- TGI [50]: > 100 µM
- TGI [51]: > 100 µM
- TGI [52]: > 100 µM
- TGI [53]: > 100 µM
- TGI [54]: > 100 µM
- TGI [55]: > 100 µM
- TGI [56]: > 100 µM

SMILES: Nc1c(C(=O)O)nnc2cc(Cl)ccc12
- TGI [1]: > 100 µM
- TGI [2]: > 100 µM
- TGI [3]: > 100 µM
- TGI [4]: > 100 µM
- TGI [5]: > 100 µM
- TGI [6]: > 100 µM
- TGI [7]: > 100 µM
- TGI [8]: > 100 µM
- TGI [9]: > 100 µM
- TGI [10]: > 100 µM
- TGI [12]: > 100 µM
- TGI [13]: > 100 µM
- TGI [57]: > 100 µM
- TGI [14]: > 100 µM
- TGI [15]: > 100 µM
- TGI [16]: > 100 µM
- TGI [17]: > 100 µM
- TGI [18]: > 100 µM
- TGI [19]: > 100 µM
- TGI [20]: > 100 µM
- TGI [21]: > 100 µM
- TGI [22]: > 100 µM
- TGI [23]: > 100 µM
- TGI [58]: > 100 µM
- TGI [24]: > 100 µM
- TGI [25]: > 100 µM
- TGI [26]: > 100 µM
- TGI [27]: > 100 µM
- TGI [28]: > 100 µM
- TGI [29]: > 100 µM
- TGI [30]: > 100 µM
- TGI [31]: > 100 µM
- TGI [32]: > 100 µM
- TGI [33]: > 100 µM
- TGI [34]: > 100 µM
- TGI [35]: > 100 µM
- TGI [36]: > 100 µM
- TGI [37]: > 100 µM
- TGI [38]: > 100 µM
- TGI [39]: > 100 µM
- TGI [40]: > 100 µM
- TGI [42]: > 100 µM
- TGI [43]: > 100 µM
- TGI [44]: > 100 µM
- TGI [45]: > 100 µM
- TGI [46]: > 100 µM
- TGI [47]: > 100 µM
- TGI [48]: > 100 µM
- TGI [49]: > 100 µM
- TGI [50]: > 100 µM
- TGI [51]: > 100 µM
- TGI [52]: > 100 µM
- TGI [53]: > 100 µM
- TGI [54]: > 100 µM
- TGI [55]: > 100 µM

SMILES: CC1C(c2ccccc2)NC(c2ccccc2)CC1(N)C#N (stereo unspecified)
- TGI [1]: > 100 µM
- TGI [3]: > 100 µM
- TGI [4]: > 100 µM
- TGI [5]: > 100 µM
- TGI [6]: > 100 µM
- TGI [7]: > 100 µM
- TGI [8]: > 100 µM
- TGI [9]: > 100 µM
- TGI [10]: > 100 µM
- TGI [11]: > 100 µM
- TGI [12]: > 100 µM
- TGI [13]: > 100 µM
- TGI [57]: > 100 µM
- TGI [14]: > 100 µM
- TGI [15]: > 100 µM
- TGI [16]: > 100 µM
- TGI [17]: > 100 µM
- TGI [18]: > 100 µM
- TGI [19]: > 100 µM
- TGI [20]: > 100 µM
- TGI [21]: > 100 µM
- TGI [22]: > 100 µM
- TGI [23]: > 100 µM
- TGI [58]: > 100 µM
- TGI [24]: > 100 µM
- TGI [25]: > 100 µM
- TGI [26]: > 100 µM
- TGI [27]: > 100 µM
- TGI [28]: > 100 µM
- TGI [29]: > 100 µM
- TGI [31]: > 100 µM
- TGI [32]: > 100 µM
- TGI [33]: > 100 µM
- TGI [59]: > 100 µM
- TGI [34]: > 100 µM
- TGI [35]: > 100 µM
- TGI [36]: > 100 µM
- TGI [37]: > 100 µM
- TGI [38]: > 100 µM
- TGI [39]: > 100 µM
- TGI [40]: > 100 µM
- TGI [41]: > 100 µM
- TGI [42]: > 100 µM
- TGI [43]: > 100 µM
- TGI [45]: > 100 µM
- TGI [46]: > 100 µM
- TGI [47]: > 100 µM
- TGI [48]: > 100 µM
- TGI [49]: > 100 µM
- TGI [50]: > 100 µM
- TGI [51]: > 100 µM
- TGI [52]: > 100 µM
- TGI [53]: > 100 µM
- TGI [54]: > 100 µM
- TGI [55]: > 100 µM
